According to US12139481B2, “Compositions comprising macrocycle derivatives incorporating bridged macrocycles and methods of producing and using same” (Southwestern Oklahoma State University, priority 2015, dated 2024):
Where two headings read alike, the source gives them in different places.

Experiments:
[1] = tested on: methicillin-resistant S. aureus ATCC 33591 (MRS); experiment: Antibacterial broth dilution assay against MRSA (modified CLSI); assay type: cell-based, Staphylococcus aureus; details: for MRSa IC50 / IC50: in vitro; for IC50: converted with molecular weight; for X more potent than ciprofloxacen: molar IC50 ratio versus ciprofloxacen
Method: (§1) General Experimental Procedures. All organisms were obtained from the American Type Culture Collection (Manassas, VA) and include the fungi Candida albicans ATCC 90028, C. glabrata ATCC 90030, C. krusei ATCC 6258, and Cryptococcus neoformans ATCC 90113, and the bacteria Staphylococcus aureus ATCC 29213 and methicillin-resistant S. aureus ATCC 33591 (MRS). All organisms were tested using modified versions of the CLSI (formerly NCCLS) methods. For all organisms, optical density was used to monitor growth (NCCLS, Reference Method for Broth Dilution Antifungal Susceptibility Testing of Yeasts; Approved Standard M27-A2. National Committee on Clinical Laboratory Standards, 2002 22 (15); and NCCLS, Methods for Dilution Antimicrobial Susceptibility Tests for Bacteria that Grow Aerobically; Approved Standard, Seventh Edition M7-A7. National Committee on Clinical Laboratory Standards, 2006. 26(2)).
(§2) Samples (dissolved in DMSO) were serially-diluted in 20% DMSO/saline and transferred (10 μL) in duplicate to 96 well flat bottom microplates. Inocula were prepared by correcting the OD630 of microbe suspensions in incubation broth [RPMI 1640/0.2% dextrose/0.03% glutamine/MOPS @ pH 6.0 (Cellgro) for Candida spp., Sabouraud Dextrose for C. neoformans, and cation-adjusted Mueller-Hinton (Difco) @ pH 7.3 for Staphylococcus spp. to afford an assay volume of […] and final target inocula of: Candida spp. and C. neoformans: 1.5×10^3, and Staphylococcus spp.: 5.0×10^5 CFU/ml. Final sample test concentrations were 1/100th the DMSO stock concentration. […] All organisms were read at either 530 nm using the Biotek Powerwave XS plate reader (Bio-Tek Instruments, Vermont) prior to and after incubation: Candida spp. at 35° C. for 46-50 h, Staphylococcus spp. at 35° C. for 16-20 h, and C. neoformans at 35° C. for 70-74 h. IC50s (concentrations that afford 50% inhibition relative to controls) were calculated using XLfit 4.2 software (IDBS, Alameda, CA) using fit model 201. The MIC is defined as the lowest test concentration that allows no detectable growth. Minimum fungicidal or bactericidal concentrations were determined by removing 5 μl from each clear (or blue) well, transferring to fresh media, and incubating as previously mentioned. The MFC/MBC is defined as the lowest test concentration that kills the organism (allows no growth).
(§3) Primary Analysis. Samples were tested in duplicate at one test concentration (50 μg/mL), and percent inhibitions were calculated relative to blank and growth controls. Samples showing 50% inhibition in at least one test organism were selected for dose response (Secondary) studies.
(§4) Secondary Analysis. Extracts from the Primary Assay, and first-run pure compounds and column fractions were tested in duplicate at 3 test concentrations (5-fold dilutions). Samples dissolved to 20 mg/mL in DMSO were tested at 200, 40, and 8 μg/mL. Samples dissolved to 2 mg/mL in DMSO were tested at 20, 4, and 0.8 μg/mL.

[2] = tested on: Staphylococcus aureus ATCC 29213; experiment: Antibacterial broth dilution assay against S. aureus (modified CLSI); assay type: cell-based; details: for S. aureus IC50 / IC50: in vitro; for IC50: converted with molecular weight; for X more potent than ciprofloxacen: molar IC50 ratio versus ciprofloxacen
Method: as §1, §2, §3, §4

[3] = tested on: L. donovani promastigotes; experiment: Antileishmanial Alamar Blue assay on promastigotes; assay type: cell-based, Leishmania donovani; details: for X more potent than Pentamidine: L. donovani, ratio of molar IC50 to Pentamidine
Outline: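 L. donovani promastigotes in RPMI 1640 with 10% FCS, from 3-day culture, were set at 5×10^5/mL and exposed to compound (50-3.1 μg/mL) for 48 hours at 26° C. Growth read by Alamar Blue fluorescence (ex 544/em 590 nm); IC50 from percent growth versus concentration.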

[4] = tested on: Cryptococcus neoformans ATCC 90113; experiment: Antimicrobial microdilution assay against Cryptococcus neoformans (modified CLSI/NCCLS, optical density); assay type: cell-based; details: for X more potent than Amphotericin B: C. neoformans, ratio of molar IC50 to Amphotericin B; for C. neoformans IC50 / IC50: in vitro, C. neoformans ATCC 90113
Outline: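 Broth microdilution (modified CLSI) in RPMI pH 6.0, samples serially diluted in 20% DMSO/saline and tested in duplicate, growth followed by OD630 before and after incubation. MFC is the lowest concentration giving no growth when 5 μL from clear wells is plated on agar.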

C. krusei ATCC 6258 = experiment: Antifungal broth dilution assay against C. krusei (modified CLSI); assay type: cell-based, Candida krusei; details: for X more potent than Amphotericin B: C. krusei, ratio of molar IC50 to amphotericin B; for C. krusei IC50 / IC50: in vitro
Method: as §1, §2, §3, §4

C. glabrata ATCC 90030 = experiment: Antifungal broth dilution assay against C. glabrata (modified CLSI); assay type: cell-based, Candida glabrata; details: for X more potent than Amphotericin B: molar IC50 ratio versus amphotericin B
Outline: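 Modified CLSI broth microdilution with OD monitoring before and after incubation at 35 °C: Candida in RPMI 1640/MOPS pH 6.0, 1.5×10^3 CFU/ml, 46-50 h; Staphylococcus in cation-adjusted Mueller-Hinton pH 7.3, 5.0×10^5 CFU/ml, 16-20 h. IC50 from curve fit; MIC is the lowest concentration with no growth; MFC/MBC from subculture.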

[5] = promastigotes, 48 hours, Alamar Blue
[6] = promastigotes, 48 hours, Alamar Blue, read-out: L. donavani IC50
[7] = read-out: C. neoformans IC50 (mol/L)
[8] = read-out: C. krusei IC50 (mol/L)
[9] = in vitro, converted with molecular weight

Row | Molecule | MRSa IC50 [1] | IC50 [1] | X more potent than ciprofloxacen [1] | S. aureus IC50 [2] | IC50 [2] | X more potent than ciprofloxacen [2] | X more potent than Pentamidine [3] | L. donovani IC50 [3, 5] | IC50 [3, 6] | X more potent than Amphotericin B [4] | C. neoformans IC50 [4] | IC50 [4, 7] | X more potent than Amphotericin B (C. krusei ATCC 6258) | C. krusei IC50 (C. krusei ATCC 6258) | IC50 (C. krusei ATCC 6258; [8]) | C. glabrata IC50 (C. glabrata ATCC 90030; in vitro) | IC50 (C. glabrata ATCC 90030; [9]) | X more potent than Amphotericin B (C. glabrata ATCC 90030) | other results
1 | [Cu(Bn2PBCyclam)(OAc)]PF6•5H2O [BME10B] | 5.350 µg/mL | 7.3 µM | 0.03 | 5.670 µg/mL | 7.73 µM | 0.04 | 1.07 | 3.64 µg/mL | 4.96 µM | 0.01 | 13.810 µg/mL | 18800 nM |  |  |  |  |  |  | 
2 | c1ccc(CN2CCN3CCN(CC2)CCN(Cc2ccccc2)CC3)cc1 [ANCl4] | 8.570 µg/mL | 22.6 µM | 0.01 | 8.810 µg/mL | 23.3 µM | 0.01 |  |  |  |  |  |  |  |  |  |  |  |  | 
3 | CC(=O)[O-].F[P-](F)(F)(F)(F)F.[Ni+2].c1ccc(CN2CCN3CCCN(CC2)CCN(Cc2ccccc2)CC3)cc1 [AW039, [Ni(Bn2PBCyclen)(C2H3O2)]PF6] |  |  |  | 4.73 µg/mL | 7.22 µM | 0.04 | 0.14 | 24.41 µg/mL | 37.2 µM | 0.02 | 7.640 µg/mL | 11700 nM | 0.17 | 5.610 µg/mL | 8.56 µM | 5.030 µg/mL | 7.68 µM | 0.18 | 
4 | O=[N+]([O-])[O-].O=[N+]([O-])[O-].O=[N+]([O-])[O-].O=[N+]([O-])[O-].O=[N+]([O-])c1ccc(CC2CNCCN(Cc3ccc(CN4CCCN5CCN(CCCNCC4)CC5)cc3)CCCN3CCN(CC3)C2)cc1.[Ni+2].[Ni+2] (stereo not drawn) [SJA236, [Ni2(bis-SB-C-Ar-NO2)(NO3)4]] |  |  |  |  |  |  | 0.23 | 24.85 µg/mL | 23.6 µM | 0.34 | 0.740 µg/mL | 701 nM | 0.26 | 6.030 µg/mL | 5.71 µM | 5.750 µg/mL | 5.45 µM | 0.26 | 
5 | [Co2(m-cyclam-homocyclen)(OAc)2][PF6]2 [AW049] |  |  |  | 5.600 µg/mL | 5.12 µM | 0.05 | 0.34 | 16.93 µg/mL | 15.5 µM | 1.67 | 0.156 µg/mL | 142 nM | 0.25 | 6.520 µg/mL | 5.96 µM | 1.217 µg/mL | 1.11 µM | 1.28 | 
6 | Clc1cc(CN2CCNCCN3CCN(CC3)CC2)cc(Cl)n1 [OB99, (dcp)1-SB-cyclen] |  |  |  | 7.520 µg/mL | 21 µM | 0.01 | 0.09 | 20.87 µg/mL | 58.2 µM | 0.28 | 0.310 µg/mL | 865 nM | 0.09 | 5.660 µg/mL | 15.8 µM |  |  |  | 
7 | [Br-].[Br-].c1cc(C[N+]23CCCN(CCN4CCCN(CC2)C4)C3)ccc1C[N+]12CCCN(CCN3CCCN(CC1)C3)C2 [SLK17A, [p-(BMBCyclams)]Br2] |  |  |  |  |  |  | 0.23 | 16.69 µg/mL | 23.4 µM | 0.02 | 8.250 µg/mL | 11600 nM | 1.21 | 0.880 µg/mL | 1.24 µM | 1.317 µg/mL | 1.85 µM | 0.77 | 
8 | [Mn2(m-cyclam-homocyclen)][MnCl4]2•12H2O [AW047] | 7.850 µg/mL | 6.09 µM | 0.03 | 5.380 µg/mL | 4.18 µM | 0.07 |  |  |  | 0.08 | 3.770 µg/mL | 2930 nM |  |  |  |  |  |  | 
9 | c1c(CN2CCCN3CCN(CCCNCC2)CC3)cc(CN2CCCN3CCN(CCCNCC2)CC3)cc1CN1CCCN2CCN(CCCNCC1)CC2 [CDG19, tris-SB-cyclams] |  |  |  |  |  |  | 0.27 |  |  | 1.05 |  |  | 0.25 |  |  |  |  | 0.11 | IC50 (C. krusei ATCC 6258; Pichia kudriavzevii, ATCC6258, read-out: C. krusei IC50 (mol/L)): 6.04 µM; IC50 (C. krusei ATCC 6258; Pichia kudriavzevii, ATCC6258, read-out: C. krusei IC50 (μg/mL)): 4.79 µg/mL; IC50 (C. glabrata ATCC 90030; Nakaseomyces glabratus, ATCC90030, in vitro): 9.8 µg/mL; IC50 (C. glabrata ATCC 90030; Nakaseomyces glabratus, ATCC90030, in vitro, converted with molecular weight): 12.3 µM; IC50 ([3]; Leishmania donovani, 48 h, read-out: L. donavani IC50 (mol/L)): 20.1 µM; IC50 ([3]; Leishmania donovani, promastigotes, 48 hours, Alamar Blue, read-out: L. donovani IC50): 15.9 µg/mL; IC50 ([4]; Cryptococcus neoformans, ATCC90113, read-out: C. neoformans IC50 (mol/L)): 227 nM; IC50 ([4]; Cryptococcus neoformans, ATCC90113, read-out: C. neoformans IC50 (μg/mL)): 0.18 µg/mL
